Experimental data taken from ChEMBL document CHEMBL2380246, “Structure-activity relationships of hybrid annonaceous acetogenins: powerful growth inhibitory effects of their connecting groups between heterocycle and hydrophobic carbon chain bearing THF ring on human cancer cell lines” (2013).

What was measured:
Type in all cases: functional
[1] = test system: DU-145; test: Growth inhibition of human DU145 cells after 48 hrs by sulforhodamine B assay; conditions: DU-145, 48 h
[2] = test system: SK-OV-3; test: Growth inhibition of human SKOV3 cells after 48 hrs by sulforhodamine B assay; conditions: SK-OV-3, 48 h
[3] = test system: St-4; test: Growth inhibition of human St-4 cells after 48 hrs by sulforhodamine B assay; conditions: St-4, 48 h
[4] = test system: LOX IMVI; test: Growth inhibition of human LOXIMVI cells after 48 hrs by sulforhodamine B assay
[5] = Growth inhibition of human RXF631L cells after 48 hrs by sulforhodamine B assay; conditions: RXF 631, 48 h
[6] = test system: A549; test: Growth inhibition of human A549 cells after 48 hrs by sulforhodamine B assay; conditions: A549, 48 h
[7] = test system: NCI-H23; test: Growth inhibition of human NCI-H23 cells after 48 hrs by sulforhodamine B assay; conditions: NCI-H23, 48 h
[8] = Growth inhibition of human HCC2998 cells after 48 hrs by sulforhodamine B assay; conditions: HCC 2998, 48 h
[9] = test system: DMS-273; test: Growth inhibition of human DMS273 cells after 48 hrs by sulforhodamine B assay; conditions: DMS-273, 48 h
[10] = test system: HT-29; test: Growth inhibition of human HT-29 cells after 48 hrs by sulforhodamine B assay; conditions: HT-29, 48 h
[11] = Growth inhibition of human MKN1 cells after 48 hrs by sulforhodamine B assay; conditions: MKN-1, 48 h
[12] = test system: OVCAR-5; test: Growth inhibition of human OVCAR5 cells after 48 hrs by sulforhodamine B assay; conditions: OVCAR-5, 48 h
[13] = test system: MKN-74; test: Growth inhibition of human MKN74 cells after 48 hrs by sulforhodamine B assay; conditions: MKN-74, 48 h
[14] = test system: HCT-116; test: Growth inhibition of human HCT116 cells after 48 hrs by sulforhodamine B assay; conditions: HCT-116, 48 h
[15] = test system: MDA-MB-231; test: Growth inhibition of human MDA-MB-231 cells after 48 hrs by sulforhodamine B assay; conditions: MDA-MB-231, 48 h
[16] = test system: OVCAR-4; test: Growth inhibition of human OVCAR4 cells after 48 hrs by sulforhodamine B assay; conditions: OVCAR-4, 48 h
[17] = test system: KM12; test: Growth inhibition of human KM12 cells after 48 hrs by sulforhodamine B assay; conditions: KM12, 48 h
[18] = test system: PC-3; test: Growth inhibition of human PC3 cells after 48 hrs by sulforhodamine B assay; conditions: PC-3, 48 h
[19] = Growth inhibition of human HBC4 cells after 48 hrs by sulforhodamine B assay; conditions: HBC4, 48 h
[20] = test system: HCT-15; test: Growth inhibition of human HCT15 cells after 48 hrs by sulforhodamine B assay; conditions: HCT-15, 48 h
[21] = Growth inhibition of human HBC5 cells after 48 hrs by sulforhodamine B assay; conditions: HBC5, 48 h
[22] = test system: OVCAR-8; test: Growth inhibition of human OVCAR8 cells after 48 hrs by sulforhodamine B assay; conditions: OVCAR-8, 48 h
[23] = test system: SF-295; test: Growth inhibition of human SF295 cells after 48 hrs by sulforhodamine B assay; conditions: SF-295, 48 h
[24] = test system: ACHN; test: Growth inhibition of human ACHN cells after 48 hrs by sulforhodamine B assay
[25] = test system: SNB-75; test: Growth inhibition of human SNB75 cells after 48 hrs by sulforhodamine B assay; conditions: SNB-75, 48 h
[26] = test system: OVCAR-3; test: Growth inhibition of human OVCAR3 cells after 48 hrs by sulforhodamine B assay; conditions: OVCAR-3, 48 h
[27] = test system: SF-268; test: Growth inhibition of human SF268 cells after 48 hrs by sulforhodamine B assay; conditions: SF-268, 48 h
[28] = test system: MKN-45; test: Growth inhibition of human MKN45 cells after 48 hrs by sulforhodamine B assay; conditions: MKN-45, 48 h
[29] = test system: DMS-114; test: Growth inhibition of human DMS114 cells after 48 hrs by sulforhodamine B assay; conditions: DMS-114, 48 h
[30] = test system: NCI-H460; test: Growth inhibition of human NCI-H460 cells after 48 hrs by sulforhodamine B assay; conditions: NCI-H460, 48 h
[31] = test system: NCI-H226; test: Growth inhibition of human NCI-H226 cells after 48 hrs by sulforhodamine B assay; conditions: NCI-H226, 48 h
[32] = test system: MKN-28; test: Growth inhibition of human MKN28 cells after 48 hrs by sulforhodamine B assay; conditions: MKN-28, 48 h
[33] = test system: MCF7; test: Growth inhibition of human MCF7 cells after 48 hrs by sulforhodamine B assay; conditions: MCF7, 48 h
[34] = test system: U-251; test: Growth inhibition of human U251 cells after 48 hrs by sulforhodamine B assay; conditions: U-251, 48 h
[35] = test system: MKN-7; test: Growth inhibition of human MKN7 cells after 48 hrs by sulforhodamine B assay; conditions: MKN-7, 48 h
[36] = test system: SNB-78; test: Growth inhibition of human SNB78 cells after 48 hrs by sulforhodamine B assay; conditions: SNB-78, 48 h
[37] = test system: NCI-H522; test: Growth inhibition of human NCI-H522 cells after 48 hrs by sulforhodamine B assay; conditions: NCI-H522, 48 h
[38] = Growth inhibition of human BSY1 cells after 48 hrs by sulforhodamine B assay; conditions: BSY-1, 48 h
[39] = test system: SF-539; test: Growth inhibition of human SF539 cells after 48 hrs by sulforhodamine B assay; conditions: SF-539, 48 h

Row | SMILES | GI50 [1] [µM] | GI50 [2] [µM] | GI50 [3] [µM] | GI50 [5] [µM] | GI50 [6] [µM] | GI50 [7] [µM] | GI50 [8] [µM] | GI50 [9] [µM] | GI50 [10] [µM] | GI50 [11] [µM] | GI50 [12] [µM] | GI50 [13] [µM] | GI50 [15] [µM] | GI50 [16] [µM] | GI50 [17] [µM] | GI50 [18] [µM] | GI50 [19] [µM] | GI50 [20] [µM] | GI50 [21] [µM] | GI50 [22] [µM] | other results
1 | CCCCCCCCCCCC[C@@H](O)[C@H]1CC[C@H]([C@H](O)CCCCCCCCCCN(C)C(=O)c2ccnn2C)O1 | 12.9 | 15.8 | 6.76 | 11 | 8.51 | 0.24 | 12 | 3.31 | 8.13 | 5.5 | 14.1 | 1.7 | 8.91 | 10 | 4.17 | 2.19 | 10 | 10 | 3.09 | 6.03 | GI50 [4]: 1.41 µM; GI50 [14]: 0.794 µM; GI50 [23]: 2 µM; GI50 [24]: 11 µM; GI50 [25]: 15.8 µM; GI50 [26]: 10 µM; GI50 [27]: 15.1 µM; GI50 [28]: 11 µM; GI50 [29]: 0.0347 µM; GI50 [30]: 5.5 µM; GI50 [31]: 9.77 µM; GI50 [32]: 0.302 µM; GI50 [33]: 5.01 µM; GI50 [34]: 10 µM; GI50 [35]: 0.0513 µM; GI50 [36]: 12 µM; GI50 [37]: 2.29 µM; GI50 [38]: 0.501 µM; GI50 [39]: 12 µM
2 | CCCCCCCCCCCC[C@@H](O)[C@H]1CC[C@H]([C@H](O)CCCCCCCCCCNC(=O)c2ccnn2C)O1 | > 100 | > 100 | 18.2 | > 100 | 12.9 | 0.0525 | > 100 | 5.75 | > 100 | 43.7 | > 100 | 3.89 | 8.51 | 22.9 | > 100 | 18.2 | > 100 | > 100 | 17 | 30.9 | GI50 [23]: 10 µM; GI50 [24]: 24 µM; GI50 [25]: 50.1 µM; GI50 [26]: 77.6 µM; GI50 [27]: > 100 µM; GI50 [28]: 7.41 µM; GI50 [30]: 8.13 µM; GI50 [31]: 40.7 µM; GI50 [33]: 3.24 µM; GI50 [34]: > 100 µM; GI50 [36]: > 100 µM; GI50 [37]: 1.41 µM; GI50 [39]: 3.72 µM
3 | CCCCCCCCCCCC[C@@H](O)[C@H]1CC[C@H]([C@H](O)CCCCCCCCCCNCc2ccnn2C)O1 | 4.37 | 2.09 | 1.82 | 2.4 | 8.71 | 0.646 | 1.82 | 1.58 | 3.02 | 1.41 | 3.09 | 1.29 | 2.19 | 1.58 | 1.41 | 2.29 | 1.82 | 2 | 2.09 | 1.58 | GI50 [4]: 1.2 µM; GI50 [14]: 1.1 µM; GI50 [23]: 1.2 µM; GI50 [24]: 3.09 µM; GI50 [25]: 2 µM; GI50 [26]: 1.51 µM; GI50 [27]: 3.63 µM; GI50 [28]: 1.82 µM; GI50 [29]: 0.129 µM; GI50 [30]: 1.7 µM; GI50 [31]: 3.31 µM; GI50 [32]: 0.501 µM; GI50 [33]: 1.7 µM; GI50 [34]: 1.51 µM; GI50 [35]: 0.309 µM; GI50 [36]: 2.09 µM; GI50 [37]: 1.29 µM; GI50 [38]: 0.339 µM; GI50 [39]: 1.58 µM
4 | CCCCCCCCCCCC[C@@H](O)[C@H]1CC[C@H]([C@H](O)CCCCCCCCCCOC(=O)c2ccnn2C)O1 | > 100 | > 100 | 30.2 | > 100 | 56.2 | 11 | 46.8 | 38 | 32.4 | 43.7 | > 100 | 30.9 | > 100 | > 100 | 20 | 28.2 | 51.3 | 47.9 | 25.7 | > 100 | GI50 [4]: 12.9 µM; GI50 [14]: 3.98 µM; GI50 [23]: 30.9 µM; GI50 [24]: 57.5 µM; GI50 [25]: > 100 µM; GI50 [26]: > 100 µM; GI50 [27]: > 100 µM; GI50 [28]: > 100 µM; GI50 [29]: 0.407 µM; GI50 [30]: 34.7 µM; GI50 [31]: 28.2 µM; GI50 [32]: 2.51 µM; GI50 [33]: 22.9 µM; GI50 [34]: 69.2 µM; GI50 [35]: 0.617 µM; GI50 [36]: 44.7 µM; GI50 [37]: 6.31 µM; GI50 [38]: 0.813 µM; GI50 [39]: > 100 µM
